Experimental data: patent US4656247A, “Effective hormonal peptides: D-3-QA1 6-LHRH” (Board of Regents, The University of Texas System, priority 1985, dated 1987)

Key:
[1] = system: pituitary cells from 21 day old rats; experiment: In vitro pituitary incubate assay (release of LH and FSH); assay type: cell-based, rat
Protocol: The data in Tables IV and V are from the in vitro assay of the peptides with the pituitary incubate. This assay measures the release of LH and FSH in an in vitro system with pituitary cells from 21 day old rats. See, Bowers, C. Y. et al. on the inhibitory effects of leutinizing hormone releasing hormone analogs. Endocrinology, 106: 674 (1980).

[2] = system: 21 day old female rats; experiment: In vivo assay in rats for release of LH and FSH; set-up: species or system rat; settings: for Serum LH ng/ml ± SEM / Serum FFSH ng/ml ± SEM: Table VI, sampling time not given; for LH ± SEM ng/ml serum / FSH ± SEM ng/ml serum: Table XI, mean 5-6; for LH ng/ml Serum ± SEM: Table VII
Protocol: In vivo rat assay performed by a modification of the method of Bowers, C. Y. et al. Endocrinology, 106, 674 (1980). 21 day old female rats were injected sc with saline or peptide. Blood samples for the RIAs of LH and FSH were collected at +15, +60, +120, or +180 minutes. (Table VI-XI).

[3] = Peptides tested biologically (summary statement); settings: when tested biologically
[4] = system: men; settings: chronic administration; cited from earlier work
[5] = system: advanced prostatic carcinoma; settings: subcutaneous, daily; cited from earlier work
[6] = 150 ng sc, first column (+ 2 hrs as in upper part)
[7] = 150 ng sc, second column (+3 hrs as in upper part)

| Molecule | LH ± SEM ng/ml serum ([2]; 150 ng sc, + 2 hrs) | LH ± SEM ng/ml serum ([2]; 150 ng sc, +3 hrs) | FSH ± SEM ng/ml serum [2, 6] | FSH ± SEM ng/ml serum [2, 7] | LH ng/ml Serum ± SEM ([2]; ± 15 min) | LH ng/ml Serum ± SEM ([2]; ± 60 min) | also measured |
| --- | --- | --- | --- | --- | --- | --- | --- |
| CC(C)C[C@H](NC(=O)[C@@H](Cc1cccnc1)NC(=O)[C@H](Cc1ccc(O)cc1)NC(=O)[C@H](CO)NC(=O)[C@H](Cc1c[nH]c2ccccc12)NC(=O)[C@H](Cc1c[nH]cn1)NC(=O)[C@@H]1CCC(=O)N1)C(=O)N[C@@H](CCCNC(=N)N)C(=O)N1CCC[C@H]1C(=O)NCC(N)=O [D-Pal^6 -LHRH, pyroGlu-His-Trp-Ser-Tyr-D-3-Pal-Leu-Arg-Pro-GlyNH2] | 144 ± 27 ng/ml serum | 38 ± 6.3 ng/ml serum | 2362 ± 293 ng/ml serum | 1617 ± 143 ng/ml serum |  |  | activity for the release of FSH (D-Pal^6 vs D-Qal^6, words) ([1]; at 0.1 ng, Table IV): same essential equivalents; activity for the release of LH (D-Pal^6 vs D-Qal^6, words) ([1]; at 0.1 ng, Table IV): essentially equivalent in activity; potency compared with D-Trp^6 -LHRH, inferred via D-Qal^6 -LHRH ([1]; inference from Table IV and comparable assays): essentially equipotent; Serum LH ng/ml ± SEM ([2]; 5 ng/rat sc): 7 ± 1 ng/mL; LH ± SEM ng/ml serum ([2]; 50 ng sc, + 2 hrs): 108 ± 17 ng/ml serum; LH ± SEM ng/ml serum ([2]; 50 ng sc, +3 hrs): 20 ± 2.3 ng/ml serum; FSH ± SEM ng/ml serum ([2]; 50 ng sc, first column (+ 2 hrs as in upper part)): 1727 ± 222 ng/ml serum; FSH ± SEM ng/ml serum ([2]; 50 ng sc, second column (+3 hrs as in upper part)): 1312 ± 163 ng/ml serum; release of LH ([2]; dosage of 5 ng): significantly released LH; LH released relative to LHRH, corrected for the level of LH before addition of the peptides ([2]; dosage of 50 ng): ~50 times; potency compared with LHRH [3]: significantly more potent than LHRH itself |
| CC(C)C[C@H](NC(=O)[C@@H](Cc1c[nH]c2ccccc12)NC(=O)[C@H](Cc1ccc(O)cc1)NC(=O)[C@H](CO)NC(=O)[C@H](Cc1c[nH]c2ccccc12)NC(=O)[C@H](Cc1c[nH]cn1)NC(=O)[C@@H]1CCC(=O)N1)C(=O)N[C@@H](CCCNC(=N)N)C(=O)N1CCC[C@H]1C(=O)NCC(N)=O [D-Trp^6 -LHRH, pyroGluHis-Trp-Ser-Tyr-D-Trp-Leu-Arg-Pro-Gly-NH2] | 230 ± 41 ng/ml serum | 117 ± 9 ng/ml serum | 2332 ± 388 ng/ml serum | 2065 ± 151 ng/ml serum | 51 ± 10 ng/mL | 259 ± 34 ng/mL | LH ng/ml Serum ± SEM ([2]; 10 mg/rat sc, ± 60 min): 31 ± 6 ng/mL; effect on Leydig cell function and serum steroid levels [4]: suppression of Leydig cell function and decreases in serum levels of testosterone, dihydrotestosterone and estradiol; clinical effect in patients with more advanced prostatic disease [5]: pain from bone metastases was relieved; clinical effect in patients with urinary obstruction [5]: noticeable clinical improvement |
| LHRH: leutinizing hormone releasing hormone, the peptide hormone which exists naturally in the hypothalamus | .18 ± 0.07 ng/ml serum | 0.66 ± 0.46 ng/ml serum | 337 ± 20 ng/ml serum | 487 ± 72 ng/ml serum | 49 ± 10 ng/mL | 5.5 ± 0.9 ng/mL | Serum FFSH ng/ml ± SEM ([2]; 15 ng/rat sc): 475 ± 43 ng/mL; Serum LH ng/ml ± SEM ([2]; 15 ng/rat sc): 1.3 ± 0.2 ng/mL; Serum FFSH ng/ml ± SEM ([2]; 50 ng/rat sc): 572 ± 68 ng/mL; Serum LH ng/ml ± SEM ([2]; 50 ng/rat sc): 3.2 ± 0.3 ng/mL; Serum FFSH ng/ml ± SEM ([2]; 150 ng/rat sc): 839 ± 73 ng/mL; Serum LH ng/ml ± SEM ([2]; 150 ng/rat sc): 12 ± 3 ng/mL; release of LH ([2]; at 15 ng): inactive |
| CCNC(=O)[C@@H]1CCCN1C(=O)[C@H](CCCNC(=N)N)NC(=O)[C@H](CC(C)C)NC(=O)[C@@H](Cc1cccnc1)NC(=O)[C@H](Cc1ccc(O)cc1)NC(=O)[C@H](CO)NC(=O)[C@H](Cc1c[nH]c2ccccc12)NC(=O)[C@H](Cc1c[nH]cn1)NC(=O)[C@@H]1CCC(=O)N1 [Peptide 21436, pryoGlu-His-Trp-Ser-Tyr-D-3-Pal-Leu-Arg-Pro-NHC2 H5] | 237 ± 52 ng/ml serum | 106 ± 13 ng/ml serum | 2415 ± 361 ng/ml serum | 2205 ± 298 ng/ml serum |  |  |  |
| CCNC(=O)[C@@H]1CCCN1C(=O)[C@H](CCCNC(=N)N)NC(=O)[C@H](CC(C)C)NC(=O)[C@@H](Cc1c[nH]c2ccccc12)NC(=O)[C@H](Cc1ccc(O)cc1)NC(=O)[C@H](CO)NC(=O)[C@H](Cc1c[nH]c2ccccc12)NC(=O)[C@H](Cc1c[nH]cn1)NC(=O)[C@@H]1CCC(=O)N1 [D-Trp^6 Pro^9 Net-LHRH, pyroGluHis-Trp-Ser-Tyr-D-Trp-Leu-Arg-Pro-EA**] | 184 ± 29 ng/ml serum | 103 ± 9 ng/ml serum | 2260 ± 294 ng/ml serum | 1763 ± 148 ng/ml serum | 59 ± 10 ng/mL | 228 ± 41 ng/mL |  |
